Tested on: SRD1 transcript
Experiment: Transcriptional regulation of SRD1 in response to exogenous IAA in fibrous roots of single-leaf plantlets (real-time RT-PCR)
Type: in vivo, sweetpotato
Settings: for transcript level of SRD1: fibrous roots, 25° C. in the dark, FIG. 7A; for transcript level of SRD1 (time course): FIG. 7B
Method: To determine the transcriptional regulation of SRD1, SRD1-specific primers [5′-[…]-3′(SEQ ID NO.: 10) and 5′-GTGCACGAAACTCCCCTT-3′(SEQ ID NO.: 11)] were designed to contain nucleotide 180 (the nucleotide showing an SNP between SRD1 and IbMADS1) and the 3 bp deletion region in SRD1 at the 3′ end of the forward primer and at the 3′ end of the reverse primer, respectively (FIG. 1).
The roots of sweetpotato were treated with IAA according to the following method. Sweetpotato plantlets bearing a single leaf and petiole (single-leaf plantlets) were collected from sweetpotato plants and incubated in flasks containing distilled water for 3 weeks. After fibrous roots had developed from the distal end of the petiole, the single-leaf plantlets were incubated in various concentrations of IAA (0, 50, 500, 1000, 2000 μM) at 25° C. in the dark for various time periods (0-24 h). After the hormone treatment, total RNA was extracted from the fibrous roots using the RNeasy Plant Mini Kit™ (Qiagen) and used for real-time and semi-quantitative reverse transcription-PCR (RT-PCR).
Total RNA (5 μg) was used for first-strand cDNA synthesis using the SuperScript III first-strand cDNA synthesis kit (Invitrogen). The resulting cDNA solution was then diluted with 30 μl of TE (10 mM TRIS-HCl, pH 8.0, 1 mM EDTA). The primers for real-time RT-PCR were as follows: SRD1 (5′-[…]-3′; SEQ ID NO.: 10), 5′-GTGCACGAAACTCCCCTT-3′; SEQ ID NO. 11). Real-time PCR analysis was performed using the LightCycler 480 quantification system (Roche Diagnostics) according to the manufacturer's instructions. Expression levels were normalized with β-tubulin expression amplified with 5′-[…]-3′ (SEQ ID NO.: 12) and 5′-[…]-3′ (SEQ ID NO.: 13) primers. PCR were performed starting with pre-denaturation at 95° C. for 10 min before 45 cycles of denaturation at 95° C. for 10 sec, annealing at 58° C. for 10 sec and extension at 72° C. for 20 sec. Following the amplification phase, a melting curve analysis was conducted from 65° C. to 97° C. The second derivative maximum method in the LightCycler 480 quantification software (Roche Diagnostics) was used to evaluate the data.

O=C(O)Cc1c[nH]c2ccccc12 [IAA, Indole-3-acetic acid]
transcript level of SRD1 (50 μM IAA): decreased
transcript level of SRD1 (time course) (500 μM IAA, 0.5 h after treatment): decreased compared with the control
transcript level of SRD1 (time course) (500 μM IAA, 1 h after treatment): decreased compared with the control
transcript level of SRD1 (time course) (500 μM IAA, 3 h after treatment): decreased compared with the control
transcript level of SRD1 (time course) (500 μM IAA, 6 h after treatment): increased sharply
transcript level of SRD1 (time course) (500 μM IAA, 12 h after treatment): decreased compared with the control
transcript level of SRD1 (time course) (500 μM IAA, 24 h after treatment): decreased compared with the control
transcript level of SRD1 (500 μM IAA): decreased
transcript level of SRD1 (1000 μM IAA): increased sharply
transcript level of SRD1 (2000 μM IAA): decreased to almost the same level as that observed at 0 μM IAA

From patent US8618357B2, “Sweetpotato SRD1 cDNA and transgenic plants with high-numbered storage roots using the same” (Korea University Research and Business Foundation, priority 2010, dated 2013)
